Molecules are shown by their SMILES.

The test system of one test is KURAMOCHI
Nature of the test: drug sensitivity score (DSS2) on cancer cell count; higher = more sensitive; extreme values may be limits of the assay. The following applies: 72 h. In short, it runs like this: (§1)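 Ovarian cancer cells were grown alone or in 1:1 direct co-culture with lung or skin fibroblasts. They were plated onto 384-well plates pre-spotted acoustically with 528 approved and investigational compounds at 5 concentrations, then treated for 72 h. Cells were fixed, immunostained for CK8/18 with Hoechst, and imaged at 10× (4 fields) to count cancer cells. A drug sensitivity score (DSS2) was derived in Breeze from 4-parameter logistic fits, with screen quality checked by Z'.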

Another test concerns OVCAR8. The test is described as above. The settings on record: 72 h. The method, boiled down: as §1
Where [1] appears, read: co-cultured fibroblast: BJHTERT.
Setting [2] is: co-cultured fibroblast: none (monoculture).

`Nc1ccn([C@@H]2O[C@H](CO)[C@@H](O)C2(F)F)c(=O)n1` [Gemcitabine]: the drug sensitivity score is 18.4 DSS in the test on KURAMOCHI (setting [1]); 25.2 DSS in the test with KURAMOCHI (co-cultured fibroblast: WI38); 26.7 DSS in the test on KURAMOCHI (setting [2]); 29.5 DSS in the test with OVCAR8 (setting [1]); 27.2 DSS in the test with OVCAR8 (co-cultured fibroblast: WI38); 26.3 DSS in the test on OVCAR8 (setting [2]).

On to `CCc1nc(C(N)=O)c(Nc2ccc(N3CCC(N4CCN(C)CC4)CC3)c(OC)c2)nc1NC1CCOCC1` [Gilteritinib], for which the drug sensitivity score is 0.4 DSS in the test on KURAMOCHI (setting [1]); 0 DSS in the test with KURAMOCHI (co-cultured fibroblast: WI38); 0 DSS in the test on KURAMOCHI (setting [2]); 1.5 DSS with OVCAR8 (setting [1]); 0 DSS with OVCAR8 (co-cultured fibroblast: WI38); 0 DSS in the test on OVCAR8 (setting [2]).

With `CCNCCS(=O)(=O)NC[C@@]1(c2ccccc2)SC(NC(=O)C(C)(C)C)=NN1C(=O)C(C)(C)C` [Litronesib], the drug sensitivity score with KURAMOCHI (setting [1]) is 19.2 DSS; with KURAMOCHI (co-cultured fibroblast: WI38), 22.8 DSS; in the test with KURAMOCHI (setting [2]), 12.2 DSS; with OVCAR8 (setting [1]), 27.8 DSS; with OVCAR8 (co-cultured fibroblast: WI38) it was 28.8 DSS; in the test with OVCAR8 (setting [2]), 27 DSS.

Turning to `CN1CCN(C2CCC(n3cc(-c4ccc(Oc5ccccc5)cc4)c4c(N)ncnc43)CC2)CC1` (configuration not stated), the drug sensitivity score in the test with KURAMOCHI (setting [1]) amounted to 19.5 DSS; with KURAMOCHI (co-cultured fibroblast: WI38), 17.8 DSS; with KURAMOCHI (setting [2]), 20.5 DSS; in the test on OVCAR8 (setting [1]), 12.9 DSS; with OVCAR8 (co-cultured fibroblast: WI38) it was 11.4 DSS; with OVCAR8 (setting [2]), 18.6 DSS.

Turning to `CNCc1ccc(-c2[nH]c3cc(F)cc4c3c2CCNC4=O)cc1` [Rucaparib], the drug sensitivity score worked out at 3.7 DSS in the test on KURAMOCHI (setting [1]); 5.3 DSS in the test on KURAMOCHI (co-cultured fibroblast: WI38); 14.1 DSS with KURAMOCHI (setting [2]); 8.5 DSS in the test with OVCAR8 (setting [1]); 3.5 DSS in the test with OVCAR8 (co-cultured fibroblast: WI38); 6.5 DSS in the test on OVCAR8 (setting [2]).

Turning to `CC(C)(O)CC(=O)NCCn1ccc2ncnc(Nc3ccc(Oc4cccc(C(F)(F)F)c4)c(Cl)c3)c21` [TAK-285], the drug sensitivity score with KURAMOCHI (setting [1]) was 5.2 DSS; in the test with KURAMOCHI (co-cultured fibroblast: WI38), 1.6 DSS; in the test on KURAMOCHI (setting [2]), 0.6 DSS; with OVCAR8 (setting [1]), 0.2 DSS; in the test with OVCAR8 (co-cultured fibroblast: WI38), 0 DSS; in the test on OVCAR8 (setting [2]), 1.2 DSS.

As for `O=C(c1cccc(Cl)c1F)N1CCN(Cc2cccc(Nc3nccs3)n2)CC1` [MK-8745], the drug sensitivity score with KURAMOCHI (setting [1]) turned out to be 11.8 DSS; with KURAMOCHI (co-cultured fibroblast: WI38) it was 14.3 DSS; in the test on KURAMOCHI (setting [2]) it was 13.4 DSS; with OVCAR8 (setting [1]) it was 12.5 DSS; in the test on OVCAR8 (co-cultured fibroblast: WI38), 14.3 DSS; with OVCAR8 (setting [2]), 13.9 DSS.

Regarding `Nc1nccc(-c2c(-c3ccc(F)cc3)ncn2C2CCCCC2)n1`, the drug sensitivity score with KURAMOCHI (setting [1]) is 5.1 DSS; in the test on KURAMOCHI (co-cultured fibroblast: WI38) it was 4 DSS; in the test on KURAMOCHI (setting [2]), 4.1 DSS; in the test with OVCAR8 (setting [1]) it was 1.4 DSS; in the test with OVCAR8 (co-cultured fibroblast: WI38), 0 DSS; with OVCAR8 (setting [2]), 1.2 DSS.

On to `NC(=O)NO` [Hydroxyurea], for which the drug sensitivity score is 5.9 DSS with KURAMOCHI (setting [1]); 7.3 DSS in the test on KURAMOCHI (co-cultured fibroblast: WI38); 6.3 DSS in the test on KURAMOCHI (setting [2]); 1.8 DSS with OVCAR8 (setting [1]); 7.3 DSS in the test on OVCAR8 (co-cultured fibroblast: WI38); 7.7 DSS in the test with OVCAR8 (setting [2]).

On to `Cn1cnc2c(F)c(Nc3ccc(Br)cc3F)c(C(=O)NOCCO)cc21` [Binimetinib], for which the drug sensitivity score was 2.2 DSS in the test on KURAMOCHI (setting [1]); 0 DSS in the test on KURAMOCHI (co-cultured fibroblast: WI38); 0 DSS with KURAMOCHI (setting [2]); 2.4 DSS with OVCAR8 (setting [1]); 0 DSS with OVCAR8 (co-cultured fibroblast: WI38); 4 DSS with OVCAR8 (setting [2]).

In the case of `C[C@@]1(C(=O)Nc2ccc(F)nc2)CCCN1c1nc(Nc2cc(C3CC3)n[nH]2)c2cccn2n1`, the drug sensitivity score in the test with KURAMOCHI (setting [1]) is 13.3 DSS; in the test on KURAMOCHI (co-cultured fibroblast: WI38), 5.5 DSS; in the test with KURAMOCHI (setting [2]) it was 10.8 DSS; in the test on OVCAR8 (setting [1]), 11.6 DSS; in the test with OVCAR8 (co-cultured fibroblast: WI38) it was 13 DSS; with OVCAR8 (setting [2]) it was 14 DSS.

`Cc1ccc(NC(=O)c2ccc(CN3CCN(C)CC3)cc2)cc1Nc1nc(-c2cccnc2)cs1` [Masitinib]: the drug sensitivity score in the test with KURAMOCHI (setting [1]) worked out at 2 DSS; in the test with KURAMOCHI (co-cultured fibroblast: WI38), 1.6 DSS; with KURAMOCHI (setting [2]), 0 DSS; in the test on OVCAR8 (setting [1]), 3.9 DSS; in the test on OVCAR8 (co-cultured fibroblast: WI38), 0.2 DSS; with OVCAR8 (setting [2]) it was 0.2 DSS.

For the origin of these results see the supplement of paper PMC12420376.
